In brackets after ≈: the same amount, converted by molar mass. Read-outs that look alike come from different tables or passages of the source.
Experiments:
[1] = system: S. aureus HH 127; experiment: in vitro MIC testing, S. aureus HH 127; type: cell-based
Experimental: (§1) The compounds of Formula I have exceptional antibacterial activity against both Gram-positive and Gram-negative organisms. Minimum inhibitory concentrations (MIC's) range from 0.2 to >200 μg/ml in in vitro testing. Test results for the compound 7β-D-mandelamido-3-[1-(2-methanesulfonamidoethyl)tetrazol-5-ylthiomethyl]-3-cephem-4-carboxylic acid sodium salt hydrate (Compound A) are given below: […]

[2] = system: S. aureus SK 23390; experiment: in vitro MIC testing, S. aureus SK 23390; type: cell-based
Experimental: as §1

[3] = system: Strep. faecalis HH 34358; experiment: in vitro MIC testing, Strep. faecalis HH 34358; type: cell-based
Experimental: as §1

[4] = system: E. coli SK 12140; experiment: in vitro MIC testing, E. coli SK 12140; type: cell-based; details: Escherichia coli, SK12140
Experimental: as §1

[5] = system: E. coli HH 33779; experiment: in vitro MIC testing, E. coli HH 33779; type: cell-based
Experimental: as §1

[6] = system: Kleb. pneumo. SK 4200; experiment: in vitro MIC testing, Kleb. pneumo. SK 4200; type: cell-based
Experimental: as §1

[7] = system: Kleb. pneumo. SK 1200; experiment: in vitro MIC testing, Kleb. pneumo. SK 1200; type: cell-based
Experimental: as §1

[8] = system: Salmonella ATCC 12176; experiment: in vitro MIC testing, Salmonella ATCC 12176; type: cell-based; details: ATCC12176, two values given
Experimental: as §1

[9] = system: Shigella HH 117; experiment: in vitro MIC testing, Shigella HH 117; type: cell-based; details: HH117
Experimental: as §1

[10] = system: Pseudo. aerug. HH 63; experiment: in vitro MIC testing, Pseudo. aerug. HH 63; type: cell-based
Experimental: as §1

[11] = system: Proteus morgani 179; experiment: in vitro MIC testing, Proteus morgani 179; type: cell-based; details: two values given
Experimental: as §1

[12] = system: Entero aerog. ATCC 13048; experiment: in vitro MIC testing, Entero aerog. ATCC 13048; type: cell-based; details: two values given
Experimental: as §1

[13] = system: Entero. cloacae HH 31254; experiment: in vitro MIC testing, Entero. cloacae HH 31254; type: cell-based; details: Enterobacter cloacae, HH31254
Experimental: as §1

[14] = system: Proteus mirabilis 444; experiment: in vitro MIC testing, Proteus mirabilis 444; type: cell-based
Experimental: as §1

[15] = system: E. coli 12140; experiment: in vivo mouse protection test, E. coli 12140
Experimental: (§2) 4200 upon subcutaneous injection; cefazolin gave results of 4 mg/kg against E. coli 12140 and 11.3 mg/kg against Kleb. pneumo. 4200 upon subcutaneous administration.

[16] = system: Kleb. pneumo. 4200; experiment: in vivo mouse protection test, Kleb. pneumo. 4200; details: sc
Experimental: as §2

[17] = system: Serratia marc. ATCC 13880; experiment: in vitro MIC testing, Serratia marc. ATCC 13880; type: cell-based; details: ATCC13880, two values given
Experimental: as §1

[18] = two values given, sodium salt hydrate

CS(=O)(=O)NCCn1nnnc1SCC1=C(C(=O)[O-])N2C(=O)[C@@H](NC(=O)[C@H](O)c3ccccc3)[C@H]2SC1.O.[Na+] [Compound A, 7β-D-mandelamido-3-[1-(2-methanesulfonamidoethyl)tetrazol-5-ylthiomethyl]-3-cephem-4-carboxylic acid sodium salt hydrate]
MIC ([1]; Staphylococcus aureus, HH127, two values given): 3.1 µg/mL | MIC [1, 18]: 1.6 µg/mL | MIC ([2]; Staphylococcus aureus, SK23390, two values given): 0.8 µg/mL | MIC [2, 18]: 0.4 µg/mL | MIC ([3]; Enterococcus faecalis, HH34358, two values given): 25 µg/mL | MIC [3, 18]: 12.5 µg/mL | MIC [4]: 0.8 µg/mL | MIC ([5]; Escherichia coli, HH33779, two values given): 1.6 µg/mL | MIC [5, 18]: 0.8 µg/mL | MIC [6]: 0.4 µg/mL | MIC [7]: 0.4 µg/mL | MIC [8]: 0.4 µg/mL | MIC [9]: 0.2 µg/mL | MIC [10]: > 200 µg/mL | MIC [11]: 1.6 µg/mL | MIC ([11]; sodium salt hydrate): 0.8 µg/mL | MIC [12]: 1.6 µg/mL | MIC ([12]; sodium salt hydrate): 0.8 µg/mL | MIC [13]: 0.8 µg/mL | MIC [14]: 0.8 µg/mL | ED50 ([15]; Escherichia coli, 12140, sc): 0.39 mg/kg | ED50 ([16]; Mus musculus): 2.44 mg/kg

Cc1nnc(SCC2=C(C(=O)O)N3C(=O)[C@@H](NC(=O)Cn4cnnn4)[C@H]3SC2)s1 [Cefazolin, reference compound]
MIC ([1]; Staphylococcus aureus, HH127, two values given, read-out: MIC): 0.4 µg/mL (≈ 0.88 µM) | MIC ([2]; Staphylococcus aureus, SK23390, two values given, read-out: MIC): 0.2 µg/mL (≈ 0.44 µM) | MIC ([3]; Enterococcus faecalis, HH34358, two values given, read-out: MIC): 6.3 µg/mL (≈ 13.9 µM) | MIC ([4]; E. coli SK 12140, two values given, read-out: MIC): 0.8 µg/mL (≈ 1.76 µM) | MIC ([5]; Escherichia coli, HH33779, two values given, read-out: MIC): 1.6 µg/mL (≈ 3.52 µM) | MIC ([6]; Kleb. pneumo. SK 4200, two values given, read-out: MIC): 1.6 µg/mL (≈ 3.52 µM) | MIC ([7]; Kleb. pneumo. SK 1200, two values given, read-out: MIC): 0.8 µg/mL (≈ 1.76 µM) | MIC [8]: 0.8 µg/mL (≈ 1.76 µM) | MIC [9]: 0.4 µg/mL (≈ 0.88 µM) | MIC ([10]; Pseudo. aerug. HH 63, two values given, read-out: MIC): > 200 µg/mL | MIC [17]: > 200 µg/mL | MIC ([11]; read-out: MIC): 200 µg/mL (≈ 440 µM) | MIC ([12]; read-out: MIC): 1.6 µg/mL (≈ 3.52 µM) | MIC ([13]; Entero. cloacae HH 31254, two values given, read-out: MIC): 0.8 µg/mL (≈ 1.76 µM) | MIC ([14]; read-out: MIC): 3.1 µg/mL (≈ 6.82 µM) | ED50 ([15]; Escherichia coli, sc, mouse protection, E. coli 12140, subcutaneous, read-out: ED50): 4 mg/kg | ED50 ([16]; mouse protection, Kleb. pneumo. 4200, subcutaneous, read-out: ED50): 11.3 mg/kg
